From patent publication US5964224A, “Method for treating amyotrophic lateral sclerosis and a therapeutic agent therefor” (priority 1997, dated 1999)
“Also recorded” adds a separate entry of the source.

Assays:
patients with ALS [1] = settings: cited from earlier work; for beneficial effects in ALS: anecdotal or preliminary observations; for potency in improving the clinical symptoms or prolonging life: patients with ALS
beagles [2] = settings: 50.0 mg/kg/day, 6 months, cited from earlier work
rats = settings: 0.5, 5.0 and 20.0 mg/kg/day i.p., 30 days; cited from earlier work
patients with ALS [3] = experiment: Double-blind trial: averaged compound muscle action potential (CMAP) amplitudes in ALS patients, ultra-high versus low dose i.m.; format: in vivo, human
Protocol: (§1) To develop a symptomatic treatment for amyotrophic lateral sclerosis, I have compared the effects of ultra-high dose and low dose (25 mg/day and 0.5 mg/day, i.m. for 14 days) of methylcobalamin on the averaged compound muscle action potential amplitudes, which serve as an index of muscle power, in a double-blind trial.
(§2) […] were recorded bilaterally from the abductor pollicis brevis, abductor digiti minimi and abductor hallucis muscles after stimulation of the median, ulnar and tibial nerves at the wrist or at the ankle. Amplitudes were measured from the baseline to the negative peak. In each patient, the average amplitude from the six muscles (averaged CMAPs) served as an index of the number of muscle fibers innervated by spinal motoneurons. The method employed was that of Kelly et al.[Muscle Nerve 10, 471-179 (1990)] and Kimura [in Electrodiagnosis in diseases of nerve and muscle: principles and practice, 2nd edition, F. A. Davis ed.(1989), pages 85-87], the disclosures of which are incorporated herein by reference.
(§3) A total of 24 ALS patients without respiratory failure entered the study after giving an informed consent for the protocol approved by the Institutional Review Board. Twelve of them (High Dose Group; age 45-66 years, 5 men) received the ultra-high dose (25 mg/day or 360-610 μg/kg/day, i.m.) methylcobalamin and the other 12 (Low Dose Group; age 41-66 years, 6 men) received the low dose (0.5 mg/day or […],i.m.) as a control. The two groups were matched for age, disease durations (19.6±4.1 versus 21.7±3.2 months) and initial averaged CHAP amplitudes (5.27±0.84 versus 4.48±0.91 mV). The patients were blinded as to the dose. The examiner, who was not informed of the dose, measured CMAPs immediately before starting methylcobalamin (day 1), at the end of 2 weeks of administration (day 14) and at 4 weeks after the start (day 28).

[4] = degraded into hydoxycobalamin; cited from earlier work
rat [5] = settings: 20 mg/kg/day i.p. (organogenesis) or 50 mg/kg i.v. (pre-gestation to postnatal); cited from earlier work
animals = settings: cited from earlier work
mouse = settings: 20 mg/kg/day i.p., organogenesis; cited from earlier work
patients with ALS [6] = experiment: Clinical symptoms (gait, weakness) and duration of benefit in ALS patients; format: in vivo, human
Protocol: as §3

patients with ALS [7] = experiment: Averaged CMAP amplitudes before and after treatment in ALS patients, 0.5 mg/day i.v., 15 mg/day i.v. and 25 mg/day i.m. groups; format: in vivo, human
Protocol: as §2
CMAP amplitudes were averaged in 10 patients with ALS treated with a low dose of methycobalamin (0.5 mg/day i.v. for 2 weeks). Those before the treatment and those 2 weeks after the completion of the treatment were compared.
CMAP amplitudes were averaged in 12 patients with ALS treated with a high dose of methylcobalamin (15 mg/day i.v. for 2 weeks). Those before the treatment, those at the end of the treatment and those 2 weeks after the completion of the treatment were compared.
CMAP amplitudes were averaged in 12 patients with ALS treated with an ultra-high dose of methylcobalamin (25 mg/day i.m. for 2 weeks). Those before the treatment, those at the end of the treatment and those 2 weeks after the completion of the treatment were compared.
The ratio of averaged CMAP amplitudes at 2 weeks after the completion of the treatment (after 4 wks) was compared with those before the treatment.

rat [8] = settings: same doses as subacute, 6 months; cited from earlier work
beagles [9] = settings: 90 days, cited from earlier work
rabbit = settings: 50 mg/kg/day, organogenesis; cited from earlier work
patient with ALS = experiment: Time course of averaged CMAP amplitude in a patient with ALS given 50 mg/day; format: in vivo, human; settings: day 0 through 13, one patient
Protocol: as §2
These clinical benefits and improved CMAPs usually lasted for 1-3 months, then followed by deterioration. […] Serial changes of averaged CMAP amplitudes in low dose (0.5 mg/day i.m., n=12) group and high dose (25 mg/day i.m., n=12) group were examined. Methylcobalamin was given during day 0 through day 13. […] The time course of averaged CMAP amplitude changes in a patient with ALS who was given 50 mg/day of methylcobalamin during day 0 day through 13 was examined.

patients with ALS [10] = experiment: Adverse reactions in ALS patients (clinical trial); format: in vivo, human
Protocol: as §1, §3

[11] = intramuscular versus intravenous route; cited from earlier work
[12] = High Dose Group, 25 mg/day i.m., n=12

**Q.** With `Nc1nc2ccc(OC(F)(F)F)cc2s1` [riluzole] as the molecule, how does the “prolongation of life without tracheostomy” value (patients with ALS [1]; a subgroup of ALS) read?
**A.** Its value is 1-3 months.

**Q.** With IGF-1: insulin-like growth factor-1 as the molecule, how does the “beneficial effects in ALS” value (patients with ALS [1]) read?
**A.** Its value is “beneficial effects”.

**Q.** With `COc1ccc2c(c1)[C@]13CCCC[C@@H]1[C@H](C2)N(C)CC3` [dextromethorphan] as the molecule, how does the “potency in improving the clinical symptoms or prolonging life” value (“potency” below) (patients with ALS [1]) read?
**A.** Its value is “not yet convincingly shown their potency”.

**Q.** What does the source list for `C/C1=C2/[N-][C@H]([C@H](CC(N)=O)[C@@]2(C)CCC(=O)NC[C@@H](C)OP(=O)([O-])O[C@H]2[C@@H](O)[C@@H](n3cnc4cc(C)c(C)cc43)O[C@@H]2CO)[C@]2(C)N=C(/C(C)=C3N=C(/C=C4N=C1[C@@H](CCC(N)=O)C\4(C)C)[C@@H](CCC(N)=O)[C@]\3(C)CC(N)=O)[C@@H](CCC(N)=O)[C@]2(C)CC(N)=O.[CH3-].[Co+3]` [methylcobalamin]?
**A.** Kupffer cells in the liver (beagles [2]): increased number of Kuppfer cells in the liver; lysosomes, electron microscopy (beagles [2]): increase in lysosomes; mesangial cells in the renal glomeruli (beagles [2]): lysosomal increase in the mesangeal cells in the renal glomeruli; kidney proximal tubules, light microscopy (beagles [2]; only this dose): increased eosinophilic granules in the proximal tubules in the kidney; general conditions, body weight, blood and urine chemistry, organ weights and histological findings (rats): no significant changes in the general conditions, body weight, blood and urine chemistry, organ weights and histological findings; ratio of averaged CMAP amplitude at day 14 or day 28 to that at day 0 (patients with ALS [3]; 25 mg/day and 0.5 mg/day i.m., n=12 each): only the high dose group showed a significant increase in the ratio at day 28; change in averaged CMAP amplitude (patients with ALS [3]; 25 mg/day i.m., at 2 weeks (day 14)): not at 2 weeks; CMAP amplitude ratio between day zero and day 28, High Dose versus Low Dose Group (patients with ALS [3]; 25 mg/day versus 0.5 mg/day i.m.): significantly higher ratio than Low Dose Group; parameter of muscle power (CMAPs) (patients with ALS [3]; 15-500 mg/day, i.m., s.c. or i.v. for 14 days, low dose as control (summary statement)): significantly increases the parameter of muscle power; change in averaged CMAP amplitude (patients with ALS [3]; low dose 0.5 mg/day i.m. for 14 days, at 2 or 4 weeks): No significant changes in CMAP amplitude; change in averaged CMAP amplitude (patients with ALS [3]; low dose 0.5 mg/day i.m. for 14 days, at 2 or 4 weeks, listed as Methylcobalamin): no significant changes in CMAP amplitude; change in averaged CMAP amplitude (patients with ALS [3]; ultra-high dose 25 mg/day i.m. for 14 days, at 4 weeks (day 28)): significant increase at 4 weeks; also recorded: increase of averaged CMAP amplitudes at day 28; change in averaged CMAP amplitude (patients with ALS [3]; ultra-high dose 25 mg/day i.m. for 14 days, at 4 weeks (day 28), listed as Methylcobalamin): significant increase at 4 weeks; light sensitivity [4]: light-sensitive, and is easily degraded into hydoxycobalamin; changes in the embryo, the fetus or the neonate (rat [5]): no significant changes in the embryo, the fetus or the neonate; major side effects (animals; 50 mg/kg/day, animals): no major side effects have been observed; edema and redness of the skin (animals; 50 mg/kg/day, on rare occasions): transient edema and redness of the skin; red urine (animals; disappears after discontinuing the administration): Red urine may be found, but it soon disappears; changes in the embryo, the fetus or the neonate (mouse): no significant changes in the embryo, the fetus or the neonate; subjective weakness (patients with ALS [6]; 15-500 mg/day, i.m., s.c. or i.v. for 14 days (summary statement)): improves the subjective weakness; improvement in gait and weakness (patients with ALS [6]; [12]): Two patients in High Dose Group noted an improvement in gait and weakness; duration of clinical benefits and improved CMAPs (patients with ALS [6]; High Dose Group, 25 mg/day i.m., then followed by deterioration): 1-3 months; improvement of clinical symptoms and objective clinical measure (patients with ALS [6]; ultra-high dose, ALS patients): improvement of both clinical symptoms and an objective clinical measure; change in averaged CMAP amplitude (patients with ALS [7]; 0.5 mg/day i.v. for 2 weeks, 10 patients, 2 weeks after completion vs before): No significant changes were found; change in averaged CMAP amplitude (patients with ALS [7]; 15 mg/day i.v. for 2 weeks, 12 patients, before, end, 2 weeks after completion): tendency toward increase of CMAPs at 2 weeks after the completion of the treatment, no statistically significant differences were found; change in averaged CMAP amplitude (patients with ALS [7]; 25 mg/day i.m. for 2 weeks, 12 patients, 2 weeks after completion): statistically significant increase of CMAPs at 2 weeks after the completion of the treatment; ratio of averaged CMAP amplitudes 2 weeks after completion to before treatment, ultra-high versus low dose group (patients with ALS [7]; 25 mg/day i.m. versus 0.5 mg/day i.v., 2 weeks, FIG. 1): statistically significant difference; p value, ratio of averaged CMAP amplitudes between groups (patients with ALS [7]; 25 mg/day i.m. versus 0.5 mg/day i.v., unpaired t-test): < 0.05; chronic toxicity findings (rat [8]): No significant changes were found; epididymis findings (beagles [9]; 50.0 mg/kg/day i.v., a dog): No changes were noted in the epidydimis; histological finding in the kidney (beagles [9]; 50.0 mg/kg/day i.v., a dog): increased eosinophilic granules in the proximal tubules in the kidney; subacute toxicity findings (beagles [9]; 0.5, 5.0 and 50.0 mg/kg/day i.v.): normal findings; changes in the embryo, the fetus or the neonate (rabbit): no significant changes in the embryo, the fetus or the neonate; time course of averaged CMAP amplitude (patient with ALS): abrupt increase of the amplitude during and after the treatment; adverse reactions: elevation of serum GOT and GPT (patients with ALS [10]; [12]): mild elevation of serum GOT and GPT in another; adverse reactions: skin rash (patients with ALS [10]; [12]): skin rash in one patient; duration of adverse reactions (skin rash; GOT/GPT elevation) (patients with ALS [10]; High Dose Group, 25 mg/day i.m., both): about a week; major side effects (patients with ALS [10]; clinical trial, 25 mg/day and 0.5 mg/day i.m. for 14 days): No major side effects were seen; half life in the blood level [11]: longer half life in the blood level

**Q.** For `O=P1(N(CCCl)CCCl)NCCCO1` (stereo not shown) [cyclophosphamide], which “beneficial effects in ALS” value (patients with ALS [1]) is on record?
**A.** The value was “beneficial effects”.

**Q.** With vitamin E as the molecule, how does the “potency” value (patients with ALS [1]) read?
**A.** The value was “not yet convincingly shown their potency”.

**Q.** Which “potency” value (patients with ALS [1]) does the source give for superoxide dismutase here?
**A.** Its value is “not yet convincingly shown their potency”.

B1: ciliary neurotrophic factor: ciliary neurotrophic factor (protein, UniProt P26441 1-200, looked up)
Ciliary neurotrophic factor: MAFTEHSPLTPHRRDLCSRSIWLARKIRSDLTALTESYVKHQGLNKNINLDSADGMPVASTDQWSELTEAERLQENLQAYRTFHVLLARLLEDQQVHFTPTEGDFHQAIHTLLLQVAAFAYQIEELMILLEYKIPRNEADGMPINVGDGGLFEKKLWGLKVLQELSQWTVRSIHDLRFISSHQTGIPARGSHYIANNKKM
**Q.** Which “potency” value (patients with ALS [1]) does the source give for B1 here?
**A.** The value was “not yet convincingly shown their potency”.
